A short description of series [1]: In vitro dissolution, USP Type II apparatus, simulated gastric fluid pH 1.2 without enzymes. The format is physicochemical. Particulars: itraconazole 100 mg, 900 ml simulated gastric fluid pH 1.2, 100 rpm, 37°C. How it is done:
The dissolution profile of pure itraconazole was compared to the dissolution profile itraconazole from the free-flowing powder formulation that was made by the process described in Example 3. The amount of free flowing powder formulation used in the dissolution studies was equivalent to amount of the formulation containing 100 mg of itraconazole. The amount of pure itraconazole used as a control in the studies was also 100 mg. […] The analysis was performed using a USP Type II dissolution apparatus with the paddle speed and temperature maintained at 100 rpm and 37±0.5° C. Three ml aliquots were removed at 10, 20, 30, 45 and 60 minute intervals. Subsequently, the amount of itraconazole in each of the aliquots was determined by using an HP Agilent® 1100 series HPLC system (Agilent Technologies, Inc., Santa Clara, Calif.). The mobile phase solution used in the HPLC system consisted of 65% acetonitrile and 35% 10 mM potassium dihydrogen phosphate. The solution was pumped through a Phenomenex® Luna 5 μm C-18 (dimension: 150 mm×4.6 mm) column (Phenomenex Corp., Torrance Calif.) at a flow rate of 1.3 ml/min. Itraconazole was detected at a wavelength of 263 nm. […] Subsequently, the amount of itraconazole in each of the aliquots was determined by using an HP Agilent® 1100 series HPLC system (Agilent Technologies, Inc., Santa Clara, Calif.). […] Itraconazole was detected at a wavelength of 263 nm. […]

A short description of series [2]: In vivo pharmacokinetic analysis after oral administration to jugular vein-cannulated rats. Particulars: fenofibrate 145 mg/70 kg, plasma fenofibric acid. How it is done:
The study was performed on jugular vein-cannulated rats weighing from 200 to 250 gm (n=4). […] Blood samples were collected at various time intervals over a 48 hour period after administration. The samples were collected into heparinized tubes through the jugular vein cannulation, centrifuged at 5000 rpm for 5 minutes. Each 50 μl plasma sample was treated with 10 μl of 50% methanol and 10 μl of an internal standard (Indomethacin), and then mixed by vortexing for 30 seconds. To that mixture, 200 μl of acetonitrile was added, followed by one minute of vortexing, centrifugation at 14,000 rpm for five minutes. […] Indomethacin was used as an internal standard for the LCMS analyis. Standard non-compartmental pharmacokinetic parameters were calculated. Briefly, noncompartmental pharmacokinetic analysis is dependent on estimation of total drug exposure. Total drug exposure is most often estimated by area under the curve (AUC) using the trapezoidal rule (numerical integration) method. Due to the dependence on the length of ‘x’ in the trapezoidal rule, the area estimation is dependent on the blood/plasma sampling schedule. That is, the closer time points are, the closer the trapezoids reflect the actual shape of the concentration-time curve.

Results on one compound are retold here after US9808426B2, “Ternary mixture formulations” (priority 2011, dated 2017).

For `CCC(C)n1ncn(-c2ccc(N3CCN(c4ccc(OCC5COC(Cn6cncn6)(c6ccc(Cl)cc6Cl)O5)cc4)CC3)cc2)c1=O` (centres unmarked) [pure drug, itraconazole], in series [1], the “drug release in 10 min” value is “less than 1%”. In series [2], the AUMC0-t stood at 436.7 µg·h/mL, the CL worked out at 0.07 L/h, the Cmax was determined as 7200 ng/mL and the “MRT (mean residence time)” value is 9.15 h. Besides, in series [2], the t1/2 came out at 7.18 h and the tmax is recorded as 2.5 h. The “AUC0-t (AUC0-48)” value in series [2] (over 48 hours) was 51 µg·h/mL.

A word on the Cmax: it is the maximum level reached in the sampled fluid or tissue.
